# Reference: paper PMC6204753, “Non-native autoinducer analogs capable of modulating the SdiA quorum sensing receptor in Salmonella enterica serovar Typhimurium” (Beilstein Journal of Organic Chemistry, 2018)
# What was measured:
# SdiA [1] = target: T1, SdiA (Salmonella enterica subsp. enterica serovar Typhimurium, UniProt O66040); assay: S. Typhimurium-pJNS25 SdiA reporter, agonism (luminescence); format: cell-based; conditions: for Emax: read-out: activation (%); for EC50: agonism dose–response, read-out: EC50; for fold increase: potency of thiolactone over corresponding lactone (EC50 ratio)
# T1 sequence (O66040 entry or part of it): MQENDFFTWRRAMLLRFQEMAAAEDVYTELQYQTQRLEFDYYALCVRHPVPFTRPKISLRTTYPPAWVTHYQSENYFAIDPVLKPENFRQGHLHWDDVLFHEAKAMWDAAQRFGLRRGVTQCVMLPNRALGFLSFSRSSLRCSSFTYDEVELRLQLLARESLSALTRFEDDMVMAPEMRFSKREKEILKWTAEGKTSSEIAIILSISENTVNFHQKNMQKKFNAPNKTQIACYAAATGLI
# From the text: (§1) Biological assays for SdiA activity. Cell-based reporter strains that rely on detecting the transcriptional activity of LuxR-type receptors are commonly used to assess the activity of exogenous ligands. We used the S. Typhimurium-pJNS25 reporter strain constructed by Smith and Ahmer and also used by Janssens et al. to examine SdiA activity. This strain naturally produces SdiA and contains a reporter plasmid with the promoter region for srgE fused to the luxABCDE operon of V. fischeri (see Experimental section for details of all strains and plasmids). SdiA activity is thus reported by the production of luciferase and resulting bioluminescence. We also prepared an SdiA reporter in E. coli (JLD271-pJN105SE-pSC11SE) to examine S. Typhimurium SdiA activity in an alternate background and with a different reporter gene output. […] This reporter construct uses an arabinose inducible promoter to produce S. Typhimurium SdiA and the promoter region for srgE fused to lacZ to report SdiA activity. SdiA activity is then measured using standard β-galactosidase assays. In both reporter strains, signal was normalized to the difference between the positive control (10 μM OOHL) and the negative control (1% DMSO; no compound).
# (§2) Salmonella SdiA reporter assay. S. Typhimurium-pJNS25 was grown 16–18 h overnight in LB, diluted 1:100 in fresh LB medium, and then incubated for 6 h at 37 °C with shaking at 200 rpm in the presence of compounds (1% DMSO). […] All compounds were screened at 100 μM and 1 μM in triplicate in agonism and antagonism assays. […] Dose–response analyses were performed by preparing dilutions of compounds in DMSO and testing each concentration in the agonism or antagonism assays. Competition dose–response assays (data in Figure 5) were performed in the same manner as the antagonism assays, except instead of OOHL being added to the subculture, the antagonist being tested was added. Non-linear regression curve fits were generated using GraphPad Prism software (version 6) using variable slope (four parameter) dose–response analysis.
# SdiA [2] = target: T1, SdiA; assay: S. Typhimurium-pJNS25 SdiA reporter, competitive antagonism against 10 nM L-OOHL; format: cell-based; conditions: for inhibition at 1 µM / Antagonism 1 μM Inhibition (%): 1 μM compound; for inhibition at 1 µM / inhibition at 100 µM / Antagonism 1 μM Inhibition (%) / Antagonism 100 μM Inhibition (%): average ± STD, change in activity from 10 nM 2 (OOHL); for inhibition at 1 µM: read-out: Antagonism 1 μM Inhibition (%); for inhibition at 100 µM / Antagonism 100 μM Inhibition (%): 100 μM compound; for inhibition at 100 µM: read-out: Antagonism 100 μM Inhibition (%); for IC50: against 10 nM L-OOHL (EC90); for Emax: maximal inhibition, 100% minus lowest % activity in presence of 10 nM L-OOHL (2), read-out: inhibition (%)
# From the text: as §1, §2
# [3] = maximal activation of the antagonists (partial agonism), Table 3
# [4] = maximal activity (efficacy) from agonism dose–response, 10 μM OOHL = 100%, DMSO = 0%
Compound,inhibition at 1 µM (SdiA [2]) [%],inhibition at 100 µM (SdiA [2]) [%],Antagonism 1 μM Inhibition (%) (SdiA [2]),Antagonism 100 μM Inhibition (%) (SdiA [2]),further results
CCCCCCCCCCCCCCCC(=O)N[C@H]1CCOC1=O [A6],17 ± 12,38 ± 5,–,–,Emax (SdiA [1]; [3]): 20%; IC50 (SdiA [2]): 1750 nM; Emax (SdiA [2]): > 50%
COc1ccc(CC(=O)N[C@H]2CCSC2=O)cc1 [F12],-13 ± 10,-21 ± 8,–,–,EC50 (SdiA [1]): 38.8 nM; Emax (SdiA [1]; [4]): 84%; fold increase (SdiA [1]): 6.49
CCCCCCCCCCCC(=O)N[C@H]1CCOC1=O [A5],17 ± 10,43 ± 4,–,–,Emax (SdiA [1]; [3]): 57%; Emax (SdiA [2]): > 50%
Cc1cccc(CC(=O)N[C@H]2CCOC2=O)c1 [E1],-6 ± 7,-14 ± 13,–,–,EC50 (SdiA [1]): 66.4 nM; Emax (SdiA [1]; [4]): 99%
COc1ccc(CC(=O)N[C@H]2CCOC2=O)cc1 [C24],–,–,-11 ± 3,4 ± 16,EC50 (SdiA [1]): 252 nM
CSc1ccc(CCC(=O)N[C@H]2CCOC2=O)cc1 [E34],21 ± 15,39 ± 8,–,–,Emax (SdiA [1]; [3]): 66%; Emax (SdiA [2]): 30%
O=C(CC1CCCCC1)N[C@H]1CCOC1=O [S7],7 ± 14,1 ± 7,–,–,EC50 (SdiA [1]): 106 nM; Emax (SdiA [1]; [4]): 89%
O=C(Cc1ccc(Br)cc1)N[C@@H]1CCOC1=O [B4],41 ± 15,16 ± 11,–,–,Emax (SdiA [1]; [3]): 52%; Emax (SdiA [2]): 50%
"O=C(Nc1ccccc1NC(=O)c1cccc(Cl)c1)c1cccc(Cl)c1 [compound 20, reference compound]",35 ± 18,39 ± 17,–,–,Emax (SdiA [1]; [3]): 47%; Emax (SdiA [2]): 53%
CCOC(=O)CNC(=O)Cc1ccc(Br)cc1 [F39],27 ± 9,53 ± 11,–,–,Emax (SdiA [1]; [3]): 50%; Emax (SdiA [2]): 55%
CSc1cccc(CC(=O)N[C@H]2CCOC2=O)c1 [E7],20 ± 14,12 ± 13,–,–,EC50 (SdiA [1]): 26 nM; Emax (SdiA [1]; [4]): 91%
CCCCCCCCCCOc1ccc(C(=O)N[C@H]2CCOC2=O)cc1 [R7],8 ± 6,43 ± 15,–,–,Emax (SdiA [1]; [3]): 6%; IC50 (SdiA [2]): 3100 nM; Emax (SdiA [2]): 51%
O=C(Cc1ccc(-c2ccccc2)cc1)N[C@H]1CCOC1=O [C18],11 ± 3,52 ± 10,–,–,Emax (SdiA [1]; [3]): 48%; Emax (SdiA [2]): 40%
CCCC(=O)N[C@H]1CCSC1=O [F8],-5 ± 10,-23 ± 11,–,–,EC50 (SdiA [1]): 62.8 nM; Emax (SdiA [1]; [4]): 91%; fold increase (SdiA [1]): 9.20
CCOC(=O)CNC(=O)Cc1cccc([N+](=O)[O-])c1 [F40],21 ± 8,43 ± 4,–,–,Emax (SdiA [1]; [3]): 56%; IC50 (SdiA [2]): 27800 nM; Emax (SdiA [2]): 33%
O=C(CCC1CCCCC1)N[C@H]1CCOC1=O [B11],6 ± 5,8 ± 14,–,–,EC50 (SdiA [1]): 50.1 nM; Emax (SdiA [1]; [4]): 93%
O=C(COc1ccc(I)cc1)N[C@H]1CCOC1=O [E22],-5 ± 11,-15 ± 8,–,–,EC50 (SdiA [1]): 10.4 nM; Emax (SdiA [1]; [4]): 108%
O=C(Cc1ccc(-c2ccccc2)cc1)N[C@H]1CCSC1=O [F13],23 ± 4,46 ± 15,–,–,Emax (SdiA [1]; [3]): 59%; IC50 (SdiA [2]): 2350 nM; Emax (SdiA [2]): 51%
Nc1ccc(CC(=O)N[C@H]2CCOC2=O)cc1 [C21],–,–,4 ± 12,13 ± 4,–
CC(C)(C)OC(=O)Nc1ccc(CC(=O)N[C@H]2CCOC2=O)cc1 [C22],–,–,-9 ± 2,6 ± 6,–
O=C(CCc1c[nH]c2ccccc12)N[C@H]1CCOC1=O [B14],–,–,10 ± 2,18 ± 5,–
O=C(CCCc1ccccc1)NC1CCOC1=O (stereo not shown) [B3],–,–,34 ± 5,16 ± 3,–
O=C(Cc1ccccc1)N[C@H]1CCOC1=O [C1],–,–,9 ± 12,-6 ± 5,–
CCCCCC(=O)N[C@H]1CCSC1=O [F7],–,–,7 ± 9,-12 ± 4,–
O=C(CCc1ccccc1)N[C@H]1CCOC1=O [B9],–,–,13 ± 10,18 ± 14,–
O=C(Cc1ccccc1Cl)N[C@H]1CCOC1=O [C7],–,–,22 ± 6,-32 ± 5,–

Compound,inhibition at 1 µM (SdiA [2]) [%],inhibition at 100 µM (SdiA [2]) [%],Antagonism 1 μM Inhibition (%) (SdiA [2]),Antagonism 100 μM Inhibition (%) (SdiA [2]),further results
O=C(Cc1cccc([N+](=O)[O-])c1)NCc1cccc([N+](=O)[O-])c1 [F55],–,–,11 ± 4,26 ± 7,–
O=C(N[C@H]1CCOC1=O)c1ccccc1 [B8],–,–,26 ± 3,-13 ± 11,–
"O=C(CCc1ccc(Br)cc1)N[C@H]1CCOC1=O [compound 8, reference compound]",–,–,15 ± 8,4 ± 3,–
"O=C(CC(=O)N[C@H]1CCOC1=O)Cc1ccccc1 [compound 5, reference compound]",–,–,23 ± 9,17 ± 3,–
CCOc1ccc(C(=O)N[C@H]2CCOC2=O)cc1 [R1],–,–,22 ± 6,13 ± 8,–
CCCOc1ccc(C(=O)N[C@H]2CCOC2=O)cc1 [R2],–,–,16 ± 9,11 ± 6,–
O=C(Cc1ccc(Br)cc1)N[C@H]1CCSC1=O [F10],–,–,8 ± 12,-3 ± 7,–
O=C(COc1cccc([N+](=O)[O-])c1)N[C@H]1CCOC1=O [E25],–,–,5 ± 18,9 ± 12,–
O=C(C=Cc1ccccc1)NC1CCOC1=O (stereo not shown) [B10],–,–,16 ± 5,-56 ± 11,–
O=C(N[C@H]1CCOC1=O)c1ccc(-c2csnn2)cc1 [D10],–,–,23 ± 6,14 ± 12,–
"CCCCCCCCCC(=O)CC(=O)NC1CCCCC1=O (stereo not shown) [compound 15, reference compound]",–,–,16 ± 16,13 ± 8,–
O=C(N[C@H]1CCOC1=O)c1cnn(-c2ccccc2)c1C(F)(F)F [D9],–,–,26 ± 6,9 ± 1,–
O=C(CCc1ccc(I)cc1)N[C@H]1CCOC1=O [E32],–,–,19 ± 14,24 ± 13,–
CCCCCC(O)CC(=O)N[C@H]1CCOC1=O (stereo partly shown) [H2],–,–,8 ± 5,12 ± 16,–
COc1ccc(C(=O)N[C@H]2CCOC2=O)cc1 [Q6],–,–,26 ± 18,-6 ± 14,–
CCCCCS(=O)(=O)N[C@H]1CCOC1=O [A9],–,–,10 ± 9,13 ± 2,–
O=C(CCc1cccs1)N[C@H]1CCOC1=O [D3],–,–,10 ± 2,6 ± 9,–
O=C(CCc1ccc2c(c1)OCO2)N[C@H]1CCOC1=O [E39],–,–,10 ± 15,12 ± 3,–
N#Cc1ccc(CC(=O)N[C@H]2CCOC2=O)cc1 [E4],–,–,12 ± 6,-17 ± 18,–
O=C(CCCc1c[nH]c2ccccc12)N[C@@H]1CCOC1=O [B5],–,–,30 ± 15,-8 ± 5,–
"CCCCCCCCCC(=O)NC1CCCC1 [compound 17, reference compound]",–,–,26 ± 12,28 ± 5,–
CCCCCCCCCC(=O)N[C@H]1CCOC1=O [A4],–,–,12 ± 19,18 ± 7,–
O=C(Cc1ccccc1F)N[C@H]1CCOC1=O [C4],–,–,3 ± 6,-31 ± 10,–
CCCCCCCCCCCCCC(=O)CC(=O)N[C@H]1CCOC1=O [H25],–,–,1 ± 13,-9 ± 15,–
O=C(Cc1c[nH]c2ccccc12)N[C@H]1CCOC1=O [B13],–,–,8 ± 10,13 ± 13,–
O=C(Cc1ccc(SC(F)(F)F)cc1)N[C@H]1CCOC1=O [E8],–,–,34 ± 11,31 ± 7,–
